Consider two substances from patent publication US4013791A, “Peptides having an antihypertensive effect” (Hoechst Aktiengesellschaft, priority 1974, dated 1977).

Test [1] has as its system angiotensin II (AT II). The experiment in a line: Duration of action of a single injection of the analog under permanent infusion of AT II. The format is in vivo. The conditions noted are these: single injection 0.1mg/kg i.v. under permanent infusion of AT II. The procedure: (§1) The potency of the AT II analogs is determined by measuring the increase in blood pressure caused by increasing amounts of AT II with and without infusion of the analog to be tested, at different dosages; duration of action is determined on the basis of the time during which a single injection of the analog to be tested is effective under permanent infusion of AT II.

In test [2] the test system is angiotensin II (AT II). The experiment in a line: Potency of AT II analogs: inhibition of the increase in blood pressure caused by AT II, with and without infusion of the analog. In kind it is in vivo. To be noted: for Inhibiting effect in percent, 0.5mcg/kg i.v. AT II: AT II 0.5mcg/kg i.v.; for Inhibiting effect in percent, 1mcg/kg i.v. AT II: AT II 1mcg/kg i.v.; for Inhibiting effect in percent, 2mcg/kg i.v. AT II: AT II 2mcg/kg i.v. The procedure: as §1

Where [3] appears, read: analog infusion 1 mcg/kg/min i.v.
[4] abbreviates: analog infusion 5 mcg/kg/min i.v.
Where [5] appears, read: analog infusion 10mcg/kg/min i.v.

Consider “[1-sarcosine,5-valine, 8-alanine] angiotensin II [[Sar^1,Val^5 Ala^8] AT II]”, for which the “duration of action in min. 0.1mg/kg i.v.” value in test [1] was 66 ± 21 min. For the same substance, in test [2] (setting [3]), the “Inhibiting effect in percent, 0.5mcg/kg i.v. AT II” value is on record as 0%; the “Inhibiting effect in percent, 1mcg/kg i.v. AT II” value is 22%; the “Inhibiting effect in percent, 2mcg/kg i.v. AT II” value came out at 31%. In addition, in test [2] (setting [4]), the “Inhibiting effect in percent, 0.5mcg/kg i.v. AT II” value is on record as 63%; the “Inhibiting effect in percent, 1mcg/kg i.v. AT II” value is reported as 76%; the “Inhibiting effect in percent, 2mcg/kg i.v. AT II” value came to 75%. For the same substance, in test [2] (setting [5]), the “Inhibiting effect in percent, 0.5mcg/kg i.v. AT II” value is 88%; the “Inhibiting effect in percent, 1mcg/kg i.v. AT II” value is reported as 90%; the “Inhibiting effect in percent, 2mcg/kg i.v. AT II” value is 89%.
Regarding “Succinamoyl--Arg--Val--Tyr--Val--His--Pro--Phegly--OH [[Suc^1,Val^5 pgl^8] AT II]”, the “duration of action in min. 0.1mg/kg i.v.” value in test [1] amounted to 89 ± 22 min. Also, in test [2] (setting [3]), the “Inhibiting effect in percent, 0.5mcg/kg i.v. AT II” value is listed as 42%; the “Inhibiting effect in percent, 1mcg/kg i.v. AT II” value is listed as 51%; the “Inhibiting effect in percent, 2mcg/kg i.v. AT II” value was determined as 55%. Further, in test [2] (setting [4]), the “Inhibiting effect in percent, 0.5mcg/kg i.v. AT II” value is listed as 88%; the “Inhibiting effect in percent, 1mcg/kg i.v. AT II” value turned out to be 94%; the “Inhibiting effect in percent, 2mcg/kg i.v. AT II” value amounted to 93%. Further, in test [2] (setting [5]), the “Inhibiting effect in percent, 0.5mcg/kg i.v. AT II” value was 98%; the “Inhibiting effect in percent, 1mcg/kg i.v. AT II” value was 94%; the “Inhibiting effect in percent, 2mcg/kg i.v. AT II” value is recorded as 92%.
